Bounds are passed on as bounds.

Among the data in patent publication US12599672B2, “KRAS proteolysis targeting chimeras” (PAQ Therapeutics Inc., priority 2023, dated 2026) are DC50 and Dmax values, retold here.

This assay has as its target T1, KRAS G12D (Homo sapiens, UniProt P01116, G12D).
T1 construct: AsPc-1-KRAS (G12D)-HiBit-KI cell (Pharmaron); host or cells: AsPc-1-KRAS (G12D)-HiBit-KI cells (HiBiT knock-in at the endogenous KRAS locus)
Briefly: KRAS G12D HiBit assay. The class given is cell-based. The settings on record: AsPc-1-KRAS (G12D)-HiBit-KI cell, compound treatment for 24 hours; for DC50: absolute DC50. As for the experimental part:
Day 1. […] Allowed cells to reach approximately 80% confluence before splitting. Rinsed cultivated cells in T-75 flasks with 5 mL PBS (Solarbio, P1020-500). […] Inactivated trypsin by adding excessive serum containing medium. Harvested the cells from flask into cell culture medium and counted the cell number.
Day 2. Test compounds were dissolved at 0.3 mM in DMSO (Solarbio, D8371) as stock solution. […] Performed 3-fold, 10-points dilution via transferring 15 μL compound into 30 μL DMSO by using TECAN liquid handler (TECAN, Freedom EVO200).
Day 3. After compound treatment for 24 hours, removed the plate from incubators and equilibrated at room temperature for 15 minutes. Prepared the HiBit reagent (Promega, N3040) by mixing 10 mL of Nano-Glo®-HiBiT Lytic Buffer with 200 μL of Nano-Glo®-HiBiT Lytic Substrate and 100 μL of LgBiT Protein. Added 20 μL of HiBit reagent into each well of the cell plate and spun the plates at room temperature at 1,000 RPM for 1 minute.
The inhibition activity was calculated using the following formula:
[formula] where HC (high control) is obtained from cells treated with 0.1% DMSO only.
For orientation: With HiBiT, luminescence reflects the tagged protein that the partner subunit can reach.

[1] abbreviates: numeric bounds given in place of class symbols.

T1 sequence (P01116 1-188 isoform P01116-2 G12D): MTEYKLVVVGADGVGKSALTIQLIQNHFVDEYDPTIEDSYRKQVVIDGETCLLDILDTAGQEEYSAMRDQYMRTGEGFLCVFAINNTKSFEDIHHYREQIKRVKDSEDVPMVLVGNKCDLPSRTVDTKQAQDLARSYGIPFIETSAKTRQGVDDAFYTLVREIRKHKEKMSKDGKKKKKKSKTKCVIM

With `C#Cc1c(F)ccc2cc(O)cc(-c3ncc4c(N5CCC[C@@](C)(O)C5)nc(OCC5(CN6CCC(N7CCC(c8ccc9c(c8)n(C)c(=O)n9C8CCC(=O)NC8=O)CC7)CC6)CC5)nc4c3F)c12` (some centres unmarked) [Compound 59], for the setting “class symbols”, the DC50 was < 100 nM.

Consider `C#Cc1c(F)ccc2cc(O)cc(-c3ncc4c(N5CCC[C@@](C)(O)C5)nc(OCC5(CN6CCC(N7CCN(c8ccc9c(c8)n(C)c(=O)n9C8CCC(=O)NC8=O)CC7)CC6)CC5)nc4c3F)c12` (some centres unmarked) [Compound 30], for which the DC50 (class symbols) is < 100 nM.

Turning to `C#Cc1c(F)ccc2cccc(-c3ncc4c(N5CCC[C@@](C)(O)C5)nc(OC[C@@]56CCCN5[C@H](COC(=O)N5CCC(CN7CCC(c8ccc9c(c8)n(C8CCC(=O)NC8=O)c(=O)n9C)CC7)CC5)CC6)nc4c3F)c12` (some centres unmarked) [Compound 136], the DC50 (class symbols) is > 300 nM.

Turning to `C#Cc1c(F)ccc2cccc(-c3ncc4c(N5CCC[C@@](C)(O)C5)nc(OCC5(CN6CCC7(CC6)CC(N6CCC(c8ccc9c(c8)n(C)c(=O)n9C8CCC(=O)NC8=O)CC6)C7)CC5)nc4c3F)c12` (some centres unmarked) [Compound 36], the DC50 (class symbols) was > 300 nM.

Take `C#Cc1c(F)ccc2cccc(-c3ncc4c(N5CCC[C@@](C)(O)C5)nc(OC[C@@]56CCCN5[C@H](COC(=O)NCCOCCOCCOc5ccc7c(c5)n(C)c(=O)n7C5CCC(=O)NC5=O)CC6)nc4c3F)c12` (stereo partly drawn) [Compound 108, ((3S,7aS)-7a-(((7-(8-ethynyl-7-fluoronaphthalen-1-yl)-8-fluoro-4-((R)-3-hydroxy-3-methylpiperidin-1-yl)pyrido[4,3-d]pyrimidin-2-yl)oxy)methyl)hexahydro-1H-pyrrolizin-3-yl)methyl (2-(2-(2-((1-(2,6-dioxopiperidin-3-yl)-3-methyl-2-oxo-2,3-dihydro-1H-benzo[d]imidazol-5-yl)oxy)ethoxy)ethoxy)ethyl) carbamate]: for the setting “class symbols”, the DC50 was > 300 nM and the Dmax was 15 to 50%.

With `C#Cc1c(F)ccc2cccc(-c3ncc4c(N5CCC[C@@](C)(O)C5)nc(OCC5(CN6CCC(CN7CCN(c8ccc9c(c8)n(C)c(=O)n9C8CCC(=O)NC8=O)CC7)CC6)CC5)nc4c3F)c12` (some centres unmarked) [Compound 26], the DC50 (class symbols) was > 300 nM.

As to `C#Cc1c(F)ccc2cccc(-c3ncc4c(N5CCC[C@@](C)(O)C5)nc(OC5CCN(CC(=O)N6CCC7(CC6)CC(N6CCC(c8ccc9c(c8)n(C)c(=O)n9C8CCC(=O)NC8=O)CC6)C7)CC5)nc4c3F)c12` (some centres unmarked) [Compound 87], the DC50 under setting [1] is > 100 nM.

For `C#Cc1c(F)ccc2cccc(-c3ncc4c(N5CCC[C@@](C)(O)C5)nc(OCC5(CN6CCC7(CC6)CC(N6CCN(c8ccc9c(c8)n(C)c(=O)n9C8CCC(=O)NC8=O)CC6)C7)CC5)nc4c3F)c12` (some centres unmarked) [Compound 41], the DC50 (class symbols) was > 300 nM.

Regarding `C#Cc1c(F)ccc2cccc(-c3ncc4c(N5CCC[C@@](C)(O)C5)nc(OCC5(CN6CCN(CC7CCN(c8ccc9c(c8)n(C)c(=O)n9C8CCC(=O)NC8=O)CC7)CC6)CC5)nc4c3F)c12` (some centres unmarked) [Compound 24], for the setting “class symbols”, the DC50 is > 300 nM.

For the compound `CCc1c(F)ccc2cc(O)cc(-c3ncc4c(N5CCC[C@@](C)(O)C5)nc(OC[C@@]56CCCN5[C@H](COC(=O)NCCOCCOCCOc5ccc7c(c5)n(C)c(=O)n7C5CCC(=O)NC5=O)CC6)nc4c3F)c12` (stereo partly drawn) [Compound 113, ((3S,7aS)-7a-(((7-(8-Ethyl-7-fluoro-3-hydroxynaphthalen-1-yl)-8-fluoro-4-((R)-3-hydroxy-3-methylpiperidin-1-yl)pyrido[4,3-d]pyrimidin-2-yl)oxy)methyl)hexahydro-1H-pyrrolizin-3-yl)methyl (2-(2-(2-((1-(2,6-dioxopiperidin-3-yl)-3-methyl-2-oxo-2,3-dihydro-1H-benzo[d]imidazol-5-yl)oxy)ethoxy)ethoxy)ethyl) carbamate], the DC50 (class symbols) is > 300 nM.

For the compound `C#Cc1c(F)ccc2cccc(-c3ncc4c(N5CCC[C@@](C)(O)C5)nc(OCC5(CN6CCC(N7CCN(c8ccc9c(c8)n(C)c(=O)n9C8CCC(=O)NC8=O)CC7)CC6)CC5)nc4c3F)c12` (some centres unmarked) [Compound 29], the DC50 (class symbols) is > 300 nM.

Consider `C#Cc1c(F)ccc2cccc(-c3ncc4c(N5CCC[C@@](C)(O)C5)nc(OCC5(CN6CCC7(CCC(c8cccc9c8n(C)c(=O)n9C8CCC(=O)NC8=O)CC7)CC6)CC5)nc4c3F)c12` (some centres unmarked) [Compound 66], for which the DC50 (class symbols) was > 300 nM.

As for `CCc1c(F)ccc2cc(O)cc(-c3ncc4c(N5CCC[C@@](C)(O)C5)nc(OC[C@@]56CCCN5[C@H](COC(=O)NCCOCCOc5ccc7c(c5)n(C)c(=O)n7C5CCC(=O)NC5=O)CC6)nc4c3F)c12` (stereo partly drawn) [Compound 112, ((3S,7aS)-7a-(((7-(8-ethyl-7-fluoro-3-hydroxynaphthalen-1-yl)-8-fluoro-4-((R)-3-hydroxy-3-methylpiperidin-1-yl)pyrido[4,3-d]pyrimidin-2-yl)oxy)methyl)hexahydro-1H-pyrrolizin-3-yl)methyl (2-(2-((1-(2,6-dioxopiperidin-3-yl)-3-methyl-2-oxo-2,3-dihydro-1H-benzo[d]imidazol-5-yl)oxy)ethoxy)ethyl) carbamate], the DC50 (class symbols) is > 300 nM.

In the case of `C#Cc1c(F)ccc2cc(O)cc(-c3ncc4c(N5CCC[C@@](C)(O)C5)nc(OC[C@@]56CCCN5[C@H](COC(=O)NCCOCCOCCOc5ccc7c(c5)n(C)c(=O)n7C5CCC(=O)NC5=O)CC6)nc4c3F)c12` (stereo partly drawn) [Compound 115, ((3S,7aS)-7a-(((7-(8-ethynyl-7-fluoro-3-hydroxynaphthalen-1-yl)-8-fluoro-4-((R)-3-hydroxy-3-methylpiperidin-1-yl)pyrido[4,3-d]pyrimidin-2-yl)oxy)methyl)hexahydro-1H-pyrrolizin-3-yl)methyl (2-(2-(2-((1-(2,6-dioxopiperidin-3-yl)-3-methyl-2-oxo-2,3-dihydro-1H-benzo[d]imidazol-5-yl)oxy)ethoxy)ethoxy)ethyl) carbamate], the DC50 (class symbols) was > 300 nM.

On to `C#Cc1c(F)ccc2cccc(-c3ncc4c(N5CCC[C@@](C)(O)C5)nc(OCC5(CN6CCC7(CC6)CC(N6CCC(c8ccc9c(C%10CCC(=O)NC%10=O)nn(C)c9c8)CC6)C7)CC5)nc4c3F)c12` (some centres unmarked) [Compound 35], for which the DC50 (class symbols) is > 300 nM.

In the case of `C#Cc1c(F)ccc2cccc(-c3ncc4c(N5CCC[C@@](C)(O)C5)nc(OCC5(CN6CCC(N7CCC(c8ccc9c(c8)n(C)c(=O)n9C8CCC(=O)NC8=O)CC7)CC6)CC5)nc4c3F)c12` (some centres unmarked) [Compound 39], the DC50 (class symbols) was > 300 nM.

Turning to `C#Cc1c(F)ccc2cccc(-c3ncc4c(N5CCC[C@@](C)(O)C5)nc(OCC5(CN6CCN(CCN7CCN(c8ccc9c(c8)n(C)c(=O)n9C8CCC(=O)NC8=O)CC7)CC6)CC5)nc4c3F)c12` (some centres unmarked) [Compound 27], the DC50 (class symbols) was > 300 nM.

`C#Cc1c(F)ccc2cc(O)cc(-c3ncc4c(N5CCC[C@@](C)(O)C5)nc(OCC5(CN6CCC(CN7CCN(c8ccc9c(c8)C(=O)N(C8CCC(=O)NC8=O)C9=O)CC7)CC6)CC5)nc4c3F)c12` (some centres unmarked) [Compound 46]: the DC50 (class symbols) is < 100 nM.

Regarding `C#Cc1c(F)ccc2cccc(-c3ncc4c(N5CCC[C@@](C)(O)C5)nc(OCC5(CN6CCN(Cc7cccc8c7n(C)c(=O)n8C7CCC(=O)NC7=O)CC6)CC5)nc4c3F)c12` (some centres unmarked) [Compound 61], the DC50 (class symbols) is > 300 nM.

Regarding `C#Cc1c(F)ccc2cccc(-c3ncc4c(N5CCC[C@@](C)(O)C5)nc(OC[C@@]56CCCN5[C@H](COC(=O)NCCOCCOc5ccc7c(c5)n(C)c(=O)n7C5CCC(=O)NC5=O)CC6)nc4c3F)c12` (some centres unmarked) [Compound 107], where the note is “class symbols”, the DC50 is > 300 nM and the Dmax lay within 15 to 50%.

In the case of `C#Cc1c(F)ccc2cccc(-c3ncc4c(N5CCC[C@@](C)(O)C5)nc(OCC5(CN6CCC7(CC6)CC(N6CCC(c8cccc9c8n(C)c(=O)n9C8CCC(=O)NC8=O)CC6)C7)CC5)nc4c3F)c12` (some centres unmarked) [Compound 44], the DC50 under setting [1] is > 100 nM.
